Experiment: xn = mol fraction of the nth substance listed
Conditions: 101 kPa, Liquid, Vibrating tube method

C=C[Si](C)(C)O[Si](C)(C)C=C [1,3-diethenyl-1,1,3,3-tetramethyldisiloxane] + CCc1ccccc1
mass density [kg/m3]
Conditions | 283.15 K | 288.15 K | 293.15 K | 298.15 K | 303.15 K
x1 = 0.0501 | 871.7 | 867.28 | 862.84 | 858.47 | 854.01
x1 = 0.1001 | 867.93 | 863.46 | 858.98 | 854.58 | 850.08
x1 = 0.1499 | 864.35 | 859.85 | 855.33 | 850.89 | 846.35
x1 = 0.2001 | 860.93 | 856.41 | 851.85 | 847.37 | 842.8
x1 = 0.25 | 857.68 | 853.12 | 848.52 | 844.02 | 839.42
x1 = 0.3 | 854.59 | 850 | 845.38 | 840.85 | 836.21
x1 = 0.3499 | 851.64 | 847.02 | 842.37 | 837.8 | 833.13
x1 = 0.4 | 848.82 | 844.17 | 839.49 | 834.91 | 830.22
x1 = 0.4501 | 846.13 | 841.46 | 836.76 | 832.14 | 827.42
x1 = 0.5 | 843.56 | 838.86 | 834.13 | 829.5 | 824.76
x1 = 0.5503 | 841.09 | 836.39 | 831.62 | 826.96 | 822.2
x1 = 0.6 | 838.73 | 834.01 | 829.22 | 824.53 | 819.75
x1 = 0.6501 | 836.45 | 831.7 | 826.89 | 822.19 | 817.38
x1 = 0.6999 | 834.3 | 829.53 | 824.71 | 819.97 | 815.14
x1 = 0.7502 | 832.18 | 827.39 | 822.55 | 817.79 | 812.94
x1 = 0.8001 | 830.16 | 825.33 | 820.48 | 815.7 | 810.84
x1 = 0.85 | 828.22 | 823.42 | 818.54 | 813.71 | 808.83
x1 = 0.8999 | 826.37 | 821.53 | 816.65 | 811.81 | 806.91
x1 = 0.9498 | 824.65 | 819.79 | 814.89 | 810.02 | 805.11
x1 = 1 | 822.79 | 817.88 | 812.97 | 808.11 | 803.18

Source: the NIST ThermoML archive (doi:10.1016/j.jct.2013.12.025)
